Assay in all cases: area under concentration-response curve (viability) (AUC (a.u.)); higher = less active
What all share (conditions): 48 h

The subject of one experiment is CU-ACC2. The method in brief:
(§1)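 Three adrenocortical carcinoma cell lines in 1,536-well plates received 23 nL of each library compound at 11 concentrations and were read with CellTiter-Glo after 48 h, with 15 minutes at room temperature before measuring luminescence. Vehicle and empty-well controls served for per-plate normalisation. AC50 and area under the curve were extracted from fitted concentration-response curves, discarding all curve classes other than inhibitory or non-responding.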

Another experiment concerns CU-ACC1. The method in brief:
as §1

A further experiment has as its system NCI-H295R. The method in brief:
as §1

As to `NC12CC3CC(CC(C3)C1)C2`, the “area under concentration-response curve” value in the experiment on CU-ACC2 is 509; in the experiment with CU-ACC1, 466; with NCI-H295R, 523.

Regarding `CCNC(=O)C[C@H]1/N=C(/C2=CC=C(Cl)C=C2)C3=CC(=CC=C3[N]4C(=NN=C14)C)OC`, the “area under concentration-response curve” value in the experiment with CU-ACC2 amounted to 452; with CU-ACC1 it was 362; with NCI-H295R, 455.

For the compound `C[C@]12C[C@H](O)[C@H]3[C@@H](CC\C4=C\C(=O)\C=C/[C@]34C)[C@@H]1CC[C@]2(O)C(=O)CO`, the “area under concentration-response curve” value turned out to be 590 in the experiment with CU-ACC2, 496 in the experiment on CU-ACC1 and 545 in the experiment on NCI-H295R.

With `O=C1NC(=O)/C(=C\c2ccc(-c3ccc(F)cc3)o2)S1`, the figures for the “area under concentration-response curve” value with CU-ACC2, in the experiment on CU-ACC1 and in the experiment with NCI-H295R were 572, 471 and 522, respectively.

With `Cn1c(=O)c2c(ncn2CC(O)CO)n(C)c1=O` (configuration not stated), the “area under concentration-response curve” value with CU-ACC2 amounted to 531; in the experiment on CU-ACC1, 437; with NCI-H295R it was 483.

`C[S+]([O-])(=O)C1=CC=C(C=C1)C/2=C(/C(=O)OC2)C3=CC=CC=C3`: the entries for the “area under concentration-response curve” value in the experiment with CU-ACC2, in the experiment with CU-ACC1 and in the experiment on NCI-H295R were 467, 407 and 424, respectively.

Consider `CN[C@@H](C)C(=O)N[C@H](C(=O)N1CCC[C@H]1c1nc(C(=O)c2ccc(F)cc2)cs1)C1CCCCC1`, for which the “area under concentration-response curve” value with CU-ACC2 stood at 571; with CU-ACC1, 525; in the experiment on NCI-H295R, 546.

In the case of `OC[C@H]1O[C@H](C[C@@H]1O)N2/C=C(C(=O)NC2=O)/C(F)(F)F`, the results for the “area under concentration-response curve” value in the experiment on CU-ACC2, in the experiment on CU-ACC1 and in the experiment with NCI-H295R were 650, 538 and 583, respectively.

Consider `CC1(C)Cc2c(-c3ccccc3)c(-c3ccc(Cl)cc3)c(CC(=O)O)n2C1`, for which the “area under concentration-response curve” value turned out to be 559 in the experiment on CU-ACC2, 475 with CU-ACC1 and 516 in the experiment with NCI-H295R.

Consider `Cc1cc2c(cc1C1(c3ccc(C(=O)O)cn3)CC1)C(C)(C)CCC2(C)C`, for which the “area under concentration-response curve” value in the experiment with CU-ACC2 came to 598; with CU-ACC1, 504; in the experiment on NCI-H295R it was 514.

On to `CCn1nc(C2CCN(C(=O)CCO)CC2)nc1-c1cnc(N)c(-c2nnc(C(C)(C)C)o2)n1`, for which the “area under concentration-response curve” value in the experiment on CU-ACC2 was determined as 504; in the experiment on CU-ACC1, 387; in the experiment with NCI-H295R it was 507.

Turning to `COc1cc2ncnc(-n3nc(-c4ccccn4)nc3N)c2cc1OC`, the “area under concentration-response curve” value in the experiment with CU-ACC2 was 551; with CU-ACC1 it was 458; with NCI-H295R, 489.

With `C[C@H](CCC(=O)O)[C@H]1CC[C@H]2[C@@H]3[C@H](O)C[C@@H]4C[C@H](O)CC[C@]4(C)[C@H]3CC[C@]12C`, the results for the “area under concentration-response curve” value in the experiment on CU-ACC2, with CU-ACC1 and in the experiment on NCI-H295R were 558, 477 and 485, respectively.

`Cc1ccc(-c2ncn(-c3ccc(Nc4nccc(-c5cccc(N6CCOCC6)c5)n4)cc3)n2)cn1`: the “area under concentration-response curve” value in the experiment on CU-ACC2 was 543; in the experiment on CU-ACC1, 370; in the experiment with NCI-H295R, 549.

With `O=c1oc2cc(O)ccc2s1`, the “area under concentration-response curve” value in the experiment on CU-ACC2 came out at 482; with CU-ACC1, 502; in the experiment with NCI-H295R, 503.

On to `CCOc1cc(/C=C2/C(=O)N(c3ccccc3)N=C2C)cc(Cl)c1OCC(=O)OC`, for which the “area under concentration-response curve” value in the experiment with CU-ACC2 turned out to be 664; in the experiment with CU-ACC1, 587; with NCI-H295R, 590.

As for `CCC(CCCC)COC(=O)C(\C#N)=C(\c1ccccc1)c2ccccc2` (configuration not stated), the entries for the “area under concentration-response curve” value in the experiment on CU-ACC2, with CU-ACC1 and in the experiment with NCI-H295R were 667, 540 and 583, respectively.

For the compound `C[C@H]1CN(C[C@H](Cc2ccccc2)C(=O)NCC(=O)O)CC[C@@]1(C)c1cccc(O)c1`, the “area under concentration-response curve” value with CU-ACC2 is 662; in the experiment on CU-ACC1, 569; with NCI-H295R, 577.

Take `CCCOc1ccn2c(C(C)=O)cc(-c3ccccc3[S+](C)(=O)[O-])c2c1`: the results for the “area under concentration-response curve” value with CU-ACC2, in the experiment on CU-ACC1 and in the experiment with NCI-H295R were 445, 485 and 527, respectively.

On to `CC(=O)O[C@@]12CO[C@@H]1C[C@H](O)[C@]3(C)[C@@H]2[C@H](OC(=O)C4=CC=CC=C4)[C@]5(O)C[C@H](O)/C(=C(/[C@@H](O)C3=O)C5(C)C)C`, for which the “area under concentration-response curve” value in the experiment with CU-ACC2 was determined as 539; in the experiment with CU-ACC1 it was 507; in the experiment with NCI-H295R it was 491.

With `NNc1nncc2ccccc12`, the “area under concentration-response curve” value was 568 in the experiment on CU-ACC2, 525 in the experiment on CU-ACC1 and 534 in the experiment on NCI-H295R.

With `Cc1nnc(N[S+](=O)([O-])c2ccc(N)cc2)s1`, the “area under concentration-response curve” value worked out at 591 with CU-ACC2, 496 in the experiment with CU-ACC1 and 546 in the experiment on NCI-H295R.

`N#Cc1ccnc(N2C(=O)CC[C@H]2C(=O)N(c2cncc(F)c2)C(C(=O)NC2CC(F)(F)C2)c2ccccc2Cl)c1` (some centres not stated): the figures for the “area under concentration-response curve” value with CU-ACC2, in the experiment with CU-ACC1 and in the experiment on NCI-H295R were 602, 500 and 578, respectively.

In the case of `COc1ccc(Cl)c(Nc2nc3ccccc3nc2N[S+](=O)([O-])c2cccc(NC(=O)C(C)(C)N)c2)c1`, the results for the “area under concentration-response curve” value with CU-ACC2, with CU-ACC1 and in the experiment on NCI-H295R were 536, 459 and 439, respectively.

`[NH2][Pt]([NH2])([Cl])[Cl]`: the “area under concentration-response curve” value with CU-ACC2 is 576; with CU-ACC1 it was 528; in the experiment with NCI-H295R it was 514.

For `CN1[C@@H]2CC(O)C[C@H]1[C@@H]1O[C@@H]12` (some centres not stated), the “area under concentration-response curve” value in the experiment on CU-ACC2 came to 560; in the experiment with CU-ACC1, 460; with NCI-H295R, 496.

Consider `C[N]1C=C(C=N1)C2=C3\C=N/NC(=O)C4=C3C(=CC(=C4)NC(=O)[C@H](N)C5CCCCC5)[NH]2`, for which the “area under concentration-response curve” value in the experiment on CU-ACC2 was 594; in the experiment on CU-ACC1, 530; in the experiment on NCI-H295R, 555.

For the compound `CC(C)OC(=O)/C1=C/N(CC(C)(C)C2=C1[NH]C3=CC=CC=C23)C(=O)C4=CC=C(F)C(=C4)F`, the “area under concentration-response curve” value in the experiment with CU-ACC2 amounted to 555; with CU-ACC1, 454; in the experiment with NCI-H295R it was 529.

For the compound `C1CN\2C[C@@H](\N=C2S1)C3=CC=CC=C3`, the entries for the “area under concentration-response curve” value with CU-ACC2, with CU-ACC1 and in the experiment with NCI-H295R were 626, 506 and 575, respectively.

With `COC(c1ccccc1)(c1ccccc1)[C@H](Oc1nc(C)cc(C)n1)C(=O)O`, the figures for the “area under concentration-response curve” value in the experiment on CU-ACC2, with CU-ACC1 and with NCI-H295R were 586, 531 and 578, respectively.

With `N/C1=N/C(=O)C/2=C(NC[C@@H](CNC3=CC=C(C=C3)C(=O)N[C@@H](CCC([O-])=O)C([O-])=O)N2C=O)\N1`, the “area under concentration-response curve” value with CU-ACC2 turned out to be 552; in the experiment with CU-ACC1, 494; in the experiment with NCI-H295R, 529.

In the case of `O=C1NC(=O)/C(=C/c2ccc3nccnc3c2)S1`, the results for the “area under concentration-response curve” value in the experiment with CU-ACC2, in the experiment on CU-ACC1 and in the experiment with NCI-H295R were 443, 452 and 496, respectively.

On to `C#Cc1cccc(Nc2ncnc3cc(OCCOC)c(OCCO)cc23)c1`, for which the “area under concentration-response curve” value with CU-ACC2 worked out at 615; in the experiment on CU-ACC1, 528; with NCI-H295R, 541.

With `CCC[C@H](N[C@@H](C)C(=O)N1[C@H](C(=O)O)C[C@@H]2CCCC[C@@H]21)C(=O)OCC`, the “area under concentration-response curve” value was 589 in the experiment on CU-ACC2, 531 with CU-ACC1 and 548 in the experiment on NCI-H295R.

In the case of `C[C@H]1CN(C[C@@H](C)N1)C2=C(F)C3=C(C(=C2F)N)C(=O)\C(=C/N3C4CC4)C(O)=O`, the “area under concentration-response curve” value is 503 with CU-ACC2, 512 with CU-ACC1 and 537 with NCI-H295R.

For `COC1=C(NC2=NC=C(Cl)C(=N2)N[C@@H]3[C@H]\4C[C@@H](\C=C4)[C@H]3C(N)=O)C=CC5=C1CCC(CC5)N6CCOCC6` (some centres not stated), the “area under concentration-response curve” value with CU-ACC2 was 600; with CU-ACC1 it was 526; in the experiment on NCI-H295R, 460.

Regarding `CCN1C(=O)\C(=C/C2=CN=C(NC3=CC=C(C=C3)N4CCN(C)CC4)N=C12)C5=C(Cl)C=C(C=C5)C6=CN=CS6`, the entries for the “area under concentration-response curve” value in the experiment with CU-ACC2, in the experiment on CU-ACC1 and in the experiment on NCI-H295R were 604, 562 and 568, respectively.

On to `Cc1[nH]c(/C=C2\C(=O)Nc3ccc(F)cc32)c(C)c1C(=O)NC[C@H](O)CN1CCOCC1`, for which the “area under concentration-response curve” value with CU-ACC2 was 601; with CU-ACC1, 525; in the experiment on NCI-H295R it was 539.

`CCN(C(=O)C/1=C(O)/C2=C(C=CC=C2Cl)N(C)C1=O)C3=CC=CC=C3`: the figures for the “area under concentration-response curve” value with CU-ACC2, in the experiment with CU-ACC1 and with NCI-H295R were 566, 489 and 555, respectively.
